{
  "source": "patent US5986074A",
  "about": "“Metal chelates as pharmaceutical imaging agents, processes of making such and uses thereof” (Emory University, priority 1997, dated 1999)",
  "key": {"[1]": {"test": "Stability of thiourea chelates", "format": "physicochemical"}, "[2]": {"test": "Biodistribution in normal rats (Table 1)", "format": "in vivo, rat", "conditions": "for Bladder, percent of total activity / Carcass, percent of total activity / Intestines, percent of total activity / Kidneys, percent of total activity / Liver, percent of total activity / Stomach, percent of total activity: normal rats", "method": "Tracheostomy was performed in an anesthetized rat and the left jugular vein was cannulated with one piece of PE-50 tubing for injection of the ^99m Tc radiopharmaceutical. The bladder was catheterized utilizing heat flared PE-50 tubing for urine collection. […] Each animal was sacrificed at the conclusion of the dynamic study and simultaneous static images of the isolated lungs, heart, liver, spleen, stomach, kidneys, bowel and bladder with urine were acquired as well as a static image of the rat carcass without the organs. Total counts for the injected dose were determined from the sum of the isolated organ counts and the carcass counts decay corrected to the time of organ imaging. Regions of interest were drawn around each organ to determine the percent injected dose in each organ."}, "kidney": {"system": "kidney", "test": "Renal clearance and extraction efficiency in rats", "format": "in vivo, rat", "conditions": "technetium or rhenium chelate", "method": "Clearance was determined by averaging three clearances based on three successive 10 minute urine collections. Clearance=UV/P where U is the urine concentration, V is the urine volume, and P is the plasma concentration. To measure extraction efficiency (EE), a left renal venous blood (0.5 ml) sample was obtained followed by a 3-ml carotid arterial sample. Both blood samples were centrifuged within 5 minutes to obtain a plasma sample. The extraction efficiency was calculated by measuring the difference between the arterial and venous blood sample: EE=(arterial concentration--venous concentrationlarterial concentration). Plasma protein binding (PPB) was determined by ultracentrifugation (Centrifree, Amicon, Inc., Beverly, Mass., micropartition system) of 1 ml arterial plasma. PPB=[1.0-(ultrafiltrate concentration/plasma concentration)]×100."}, "[3]": {"test": "Normal volunteer studies: plasma clearance, urinary excretion, imaging", "format": "in vivo, human", "conditions": "humans; for Clearance rate (EC/OIH): relative to coinjected OIH", "method": "^99m Tc LL-EC, DD-EC and DL-EC were each evaluated in three normal male volunteers. The HPLC purified complexes and phosphate-buffered saline (pH 7.0) were passed through a SEP-PAK Plus C18 cartridge (primed with 1 ml ethanol) and a sterile Millex-GS 0.22 μm filter unit into a sterile, pyrogen-free empty vial. The final concentration was ~2.0 mCi/2.5 ml and the final pH ranged from 5.7 to 7.4. Test samples of each complex were sterile and pyrogen free. Approximately 2 mCi of each ^99m Tc complex were coinjected with 200 μCi of I-131 OIH and plasma samples were obtained at 5, 10, 15, 20, 30 45, 60 and 90 minutes post injection. The plasma clearances of 1-131 OIH and each EC complex were determined using the single injection, two-compartment model of Sapirstein et al., (1955) Am. J. Physiol. 181: 330-336. The volunteers voided at 30, 90 and 180 minutes post injection to determine the percent dose in the urine at each time period. A urine sample from the 30 minute urine collection was obtained for HPLC analysis from one of the normal volunteers and analyzed for each complex. One volunteer was imaged with each complex using a simultaneous acquisition with a 20% window centered over the 363 KeV photopeak of I-131 and a second 20% window over the 140 KeV photopeak of ^99m Tc. Data were acquired in a 128×128 matrix using a three phase dynamic acquisition: phase 1 consisted of 24 two second frames, phase 2 consisted of 16 fifteen second frames and phase 3 consisted of 40 thirty second frames. Data were acquired using a general Electric (Milwaukee, Wis.) Star-Cam computer fitted with a high energy collimator. All studies were performed with the approval of the Human Investigations Committee and a signed consent form was obtained."}, "[4]": {"test": "Ionic forms at physiological pH", "format": "physicochemical"}, "plasma protein": {"system": "plasma protein", "conditions": "cited from earlier work"}, "[5]": {"conditions": "mice and baboons; cited from earlier work"}, "[6]": {"conditions": "cited from earlier work"}, "[7]": {"conditions": "cited from earlier work", "remark": "listed apart in the source"}, "kidneys": {"system": "kidneys", "conditions": "in vivo; cited from earlier work"}, "[8]": {"conditions": "mice, baboons, volunteers; cited from earlier work"}, "brain": {"system": "brain", "conditions": "in vivo; cited from earlier work"}, "[9]": {"conditions": "cited from earlier work", "remark": "listed apart in the source"}},
  "note": "Read-outs that look alike come from different tables or passages of the source.",
  "data": [
    {"molecule": "CC(C)(S)C(=O)NCCCNC(=S)NCCC(=O)O", "note": "[(Me)2 -TAPTU-EtCOOH, dimethylthioacetamidepropylthiourea-ethylCOOH]", "values": [
      {"measurement": "Stability compared with the corresponding thioacetamidethiourea derivative", "setting": "[1]", "result": "greater stability than the corresponding thioacetamide-thiourea derivative"},
      {"measurement": "Stability compared with the corresponding thioacetamidethiourea derivative", "setting": "[1]; listed as dimethyl-TAPTU-EtCOOH", "result": "appeared to be more stable than the corresponding thioacetamidethiourea derivative"}
    ]},
    {"molecule": "O=C(O)[C@@H](CS)NCCN[C@H](CS)C(=O)O", "note": "[D,D-EC, D,D-ethylenedicysteine]", "values": [
      {"measurement": "Bladder, percent of total activity", "setting": "[2]; 22 minutes post injection", "result": "63.2% of total activity"},
      {"measurement": "Carcass, percent of total activity", "setting": "[2]; 22 minutes post injection", "result": "25.4% of total activity"},
      {"measurement": "Intestines, percent of total activity", "setting": "[2]; 22 minutes post injection", "result": "2.6% of total activity"},
      {"measurement": "Kidneys, percent of total activity", "setting": "[2]; 22 minutes post injection", "result": "5.4% of total activity"},
      {"measurement": "Liver, percent of total activity", "setting": "[2]; 22 minutes post injection", "result": "2.9% of total activity"},
      {"measurement": "Stomach, percent of total activity", "setting": "[2]; 22 minutes post injection", "result": "< 1% of total activity"},
      {"measurement": "Removal/excretion by the kidneys, in words", "setting": "[2]; rats", "result": "more rapid renal clearance than ^99m Tc MAG3"},
      {"measurement": "Removal/excretion by the kidneys, in words", "setting": "[2]; rats, listed as 99m Tc-D,D-EC", "result": "superior to L,L-EC in rats"},
      {"measurement": "Renal clearance, in words", "setting": "kidney", "result": "significantly higher than that of its LL-isomer and than that of ^99m Tc MAG3"},
      {"measurement": "Clearance rate (EC/OIH)", "setting": "[3]", "result": "82±8", "unit": "%"},
      {"measurement": "Dianionic form at physiological pH", "setting": "[4]", "result": 80, "unit": "%"},
      {"measurement": "Monoanionic form at physiological pH", "setting": "[4]", "result": 20, "unit": "%"}
    ]},
    {"molecule": "O=C(O)C(CS)NCCNC(CS)C(=O)O", "note": "(stereo not drawn) [EC, ethylene dicysteine]", "values": [
      {"measurement": "Protein binding characteristics", "setting": "plasma protein", "result": "favorable protein binding characteristics"}
    ]},
    {"molecule": "O=C([O-])[C@H](C[S-])NCCN[C@@H](CS)C(=O)[O-].[O]=[Tc+3]", "note": "[L,L-EC, L,L-ethylenedicysteine]", "values": [
      {"measurement": "Bladder, percent of total activity", "setting": "[2]; 22 minutes post injection", "result": "45.6% of total activity"},
      {"measurement": "Carcass, percent of total activity", "setting": "[2]; 22 minutes post injection", "result": "22.6% of total activity"},
      {"measurement": "Intestines, percent of total activity", "setting": "[2]; 22 minutes post injection", "result": "1.8% of total activity"},
      {"measurement": "Kidneys, percent of total activity", "setting": "[2]; 22 minutes post injection", "result": "24.4% of total activity"},
      {"measurement": "Liver, percent of total activity", "setting": "[2]; 22 minutes post injection", "result": "4.5% of total activity"},
      {"measurement": "Stomach, percent of total activity", "setting": "[2]; 22 minutes post injection", "result": "< 1% of total activity"},
      {"measurement": "Clearance rate (EC/OIH)", "setting": "[3]", "result": "70±3", "unit": "%"},
      {"measurement": "Dianionic form at physiological pH", "setting": "[4]", "result": 80, "unit": "%"},
      {"measurement": "Monoanionic form at physiological pH", "setting": "[4]", "result": 20, "unit": "%"},
      {"measurement": "Comparison with ^99m Tc DD-EC", "setting": "[5]", "result": "superior to the enantiomer ^99m Tc DD-EC"},
      {"measurement": "Pharmacokinetic properties compared with OIH and MAG3", "setting": "[5]", "result": "more closely approached those of OIH than the properties of MAG3"}
    ]},
    {"molecule": "O=C(O)CNC(=O)CNC(=O)CNC(=O)CS", "note": "[MAG3, mercaptoacetyltriglycine]", "values": [
      {"measurement": "Bladder, percent of total activity", "setting": "[2]; 22 minutes post injection", "result": "57% of total activity"},
      {"measurement": "Carcass, percent of total activity", "setting": "[2]; 22 minutes post injection", "result": "14% of total activity"},
      {"measurement": "Intestines, percent of total activity", "setting": "[2]; 22 minutes post injection", "result": "5% of total activity"},
      {"measurement": "Kidneys, percent of total activity", "setting": "[2]; 22 minutes post injection", "result": "23% of total activity"},
      {"measurement": "Liver, percent of total activity", "setting": "[2]; 22 minutes post injection", "result": "1% of total activity"},
      {"measurement": "Stomach, percent of total activity", "setting": "[2]; 22 minutes post injection", "result": "< 1% of total activity"},
      {"measurement": "Plasma-protein binding, in words", "setting": "plasma protein", "result": "very high"},
      {"measurement": "Clearance compared to DTPA", "setting": "[6]; in vivo", "result": "higher clearance of MAG3 compared to DTPA"},
      {"measurement": "Clearance relative to OIH", "setting": "[6]; percent of OIH clearance", "result": "50-60%"},
      {"measurement": "Transport into the small intestine via the hepatobiliary system", "setting": "[7]; normal volunteers", "result": "a small percentage"},
      {"measurement": "Transport into the small intestine via the hepatobiliary system", "setting": "[7]; patients with renal failure", "result": "this percentage increases in patients with renal failure"},
      {"measurement": "Extraction rate", "setting": "kidneys", "result": "favorably high extraction rate"}
    ]},
    {"molecule": "C[C@H](NC(=O)CNC(=O)CS)C(=O)NCC(=O)O", "note": "[MAGAG, mercaptoacetylglycylalanylglycine]", "values": [
      {"measurement": "Comparison with ^99m Tc MAG3", "setting": "[8]", "result": "one diastereomer comparable and the other considerably inferior"}
    ]},
    {"molecule": "O=C(O)CNC(=O)c1ccccc1[131I]", "note": "[OIH, ^131 I-orthohippurate]", "values": [
      {"measurement": "Clearance relative to p-aminohippuric acid (PAH)", "setting": "[6]; percent of PAH clearance", "result": 83, "unit": "%"}
    ]},
    {"molecule": "D,L-ethylenedicysteine [DL-EC]", "values": [
      {"measurement": "Rate of excretion in the urine", "setting": "[3]", "result": "had a slower rate of excretion"},
      {"measurement": "Clearance rate (EC/OIH)", "setting": "[3]", "result": "40±5", "unit": "%"}
    ]},
    {"molecule": "L-cysteinylethylenepyridine carboxamide [L-CEPIC]", "values": [
      {"measurement": "Bladder, percent of total activity", "setting": "[2]; 30 minutes post injection", "result": "58.2% of total activity"},
      {"measurement": "Carcass, percent of total activity", "setting": "[2]; 30 minutes post injection", "result": "19.8% of total activity"},
      {"measurement": "Intestines, percent of total activity", "setting": "[2]; 30 minutes post injection", "result": "6.4% of total activity"},
      {"measurement": "Kidneys, percent of total activity", "setting": "[2]; 30 minutes post injection", "result": "7.2% of total activity"},
      {"measurement": "Liver, percent of total activity", "setting": "[2]; 30 minutes post injection", "result": "4.8% of total activity"},
      {"measurement": "Stomach, percent of total activity", "setting": "[2]; 30 minutes post injection", "result": "1.9% of total activity"},
      {"measurement": "Removal/excretion by the kidneys, in words", "setting": "[2]; rats", "result": "rapid and selective removal of the test compounds by the kidneys"},
      {"measurement": "Uptake in other major organs", "setting": "[2]; rats", "result": "only trace amounts being taken up in other major organs"},
      {"measurement": "Removal/excretion by the kidneys, in words", "setting": "[2]; rats, listed as 99m Tc-CEPIC", "result": "even more rapidly excreted by the kidneys than ^99m Tc MAG3"},
      {"measurement": "Renal clearance, in words", "setting": "kidney", "result": "renal clearance efficiency similar to that of ^99m Tc MAG3"}
    ]},
    {"molecule": "^99m Tc L,L-ethylenedicysteine diethyl ester [^99m Tc LL-ECD]", "values": [
      {"measurement": "Brain perfusion", "setting": "brain", "result": "good brain perfusion agent"}
    ]},
    {"molecule": "^99m Tc mercaptoacetyl-glycylglycyl-taurine", "values": [
      {"measurement": "Comparison with ^99m Tc MAG3 in dogs", "setting": "[9]", "result": "inferior to ^99m Tc MAG3 in dogs"}
    ]},
    {"molecule": "thioacetamidethiourea-ethylCOOH [TATU-EtCOOH]", "values": [
      {"measurement": "Renal clearance, in words", "setting": "kidney", "result": "superior renal clearance in rats when compared to a corresponding metal chelate with MAG3"}
    ]},
    {"molecule": "thioacetamidethiourea-para-phenylCOOH [TATU-pPhCOOH]", "values": [
      {"measurement": "Renal clearance, in words", "setting": "kidney", "result": "cleared at a moderate rate by the kidneys in rat"},
      {"measurement": "Renal clearance, in words", "setting": "kidney; listed as TATU-pPh", "result": "cleared at a moderate rate"}
    ]}
  ]
}
